The source of these data is article PMC10553834, “Differentiating the roles of Mycobacterium tuberculosis substrate binding proteins, FecB and FecB2, in iron uptake” (PLOS Pathogens, 2023).

“Also recorded” adds a separate entry of the source. Where two headings read alike, the source gives them in different places.

The target in one assay is Mtb FecB (Rv3044) (Mycobacterium tuberculosis, UniProt O53291). Put plainly: biochemical. It is filed as binding.
Another assay concerns the target Mtb FecB2 (Rv0265c) (Mycobacterium tuberculosis, UniProt L7N6B2). It is filed as binding. The note with it: FecB2-His (with His tag); 100 nM protein, 50 mM Tris-HCl pH 7.4, 150 mM NaCl, emission 335 nm.

Chain of Mtb FecB (Rv3044) (O53291 entry or part of it): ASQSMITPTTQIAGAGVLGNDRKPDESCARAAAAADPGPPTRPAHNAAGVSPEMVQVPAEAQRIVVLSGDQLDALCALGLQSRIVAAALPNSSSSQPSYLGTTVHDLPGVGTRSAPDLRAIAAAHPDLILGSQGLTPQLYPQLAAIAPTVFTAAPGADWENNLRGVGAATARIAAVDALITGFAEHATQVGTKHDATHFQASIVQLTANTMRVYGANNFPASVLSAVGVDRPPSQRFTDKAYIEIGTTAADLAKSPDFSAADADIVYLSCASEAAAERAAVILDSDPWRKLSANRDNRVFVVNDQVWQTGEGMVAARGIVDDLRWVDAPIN
Chain of Mtb FecB2 (Rv0265c) (L7N6B2 39-330 limits assumed): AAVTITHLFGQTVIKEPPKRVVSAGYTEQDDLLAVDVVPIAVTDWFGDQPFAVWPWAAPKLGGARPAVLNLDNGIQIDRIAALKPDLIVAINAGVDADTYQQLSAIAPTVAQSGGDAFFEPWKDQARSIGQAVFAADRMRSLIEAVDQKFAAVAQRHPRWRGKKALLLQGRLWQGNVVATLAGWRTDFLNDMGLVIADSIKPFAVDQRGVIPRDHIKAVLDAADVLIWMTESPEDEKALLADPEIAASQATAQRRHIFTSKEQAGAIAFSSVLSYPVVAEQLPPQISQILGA

A word on the Kd: it is the free concentration of one partner at which half of the binding sites on the other are occupied at equilibrium, for simple one-to-one binding. A high value points to a looser complex. As for `O=C(N[C@H]1COC(=O)[C@@H](NC(=O)c2cccc(O)c2O)COC(=O)[C@@H](NC(=O)c2cccc(O)c2O)COC1=O)c1cccc(O)c1O` [ferric-enterobactin], on Mtb FecB (Rv3044), the “Fold weaker affinity to FecB compared to Fe-cMB” value (“Fold weaker affinity to FecB” for short) is “at least 40 fold” and the Kd was 26100 nM.
On to carboxymycobactin [apo-cMB], for which, at Mtb FecB (Rv3044), the “Fold weaker affinity to FecB” value is recorded as roughly 4 fold and the Kd stood at 2900 ± 100 nM.
In the case of ferric-carboxymycobactin [Fe-cMB], the Kd entry is “could not be determined; also recorded: too weak to be determined” on Mtb FecB2 (Rv0265c); 550 nM at Mtb FecB (Rv3044); 680 nM at Mtb FecB (Rv3044) (FecB without His tag (tagless), 100 nM protein, 50 mM Tris-HCl pH 7.4, 150 mM NaCl, emission 335 nm); 630 ± 120 nM at Mtb FecB (Rv3044) (FecB-His (with His tag, native), 100 nM protein, 50 mM Tris-HCl pH 7.4, 150 mM NaCl, emission 335 nm).
Regarding ferric-mycobactin J [Fe-MBJ], the “Fold weaker affinity to FecB” value on Mtb FecB (Rv3044) is on record as roughly 20 fold. Moreover, the figures for the equilibrium dissociation constant (Kd) at Mtb FecB (Rv3044) and at Mtb FecB (Rv3044) (listed as Fe-mycobactin J) were roughly 11000 nM and 11300 ± 100 nM, respectively.
With ferric-pyoverdines, at Mtb FecB (Rv3044), the “Fold weaker affinity to FecB” value is reported as “at least 40 fold” and the Kd is greater than 45000 nM.
